# Measurements: ChEMBL document CHEMBL5046315, “CRCM5484: A BET-BDII Selective Compound with Differential Anti-leukemic Drug Modulation” (J Med Chem, 2022)
# Active and inactive are the calls of the source. The calls are words filed in the database; no cut-off is given here.
# Assays:
# MOLM-14 [1] = assay: Potentiation of metformin -induced antileukemic activity against human MOLM-14 cells at 4.3 uM in presence of bone-marrow derived stromal cell-conditioned medium; type: functional, cell-based
# MOLM-14 [2] = assay: Potentiation of tipifarnib-induced antileukemic activity against human MOLM-14 cells at 4.3 uM in presence of bone-marrow derived stromal cell-conditioned medium; type: functional, cell-based
# MOLM-14 [3] = assay: Potentiation of gefitinib-induced antileukemic activity against human MOLM-14 cells at 4.3 uM in presence of bone-marrow derived stromal cell-conditioned medium; type: functional, cell-based
# U-937 [4] = assay: Potentiation of SGI-1027-induced antileukemic activity against human U-937 cells at 4.3 uM in presence of bone-marrow derived stromal cell-conditioned medium; type: functional, cell-based
# CCRF-CEM [5] = assay: Potentiation of rigosertib-induced antileukemic activity against human CCRF-CEM cells at 4.3 uM in presence of bone-marrow derived stromal cell-conditioned medium; type: functional, cell-based
# U-937 [6] = assay: Potentiation of daunorubicine-induced antileukemic activity against human U-937 cells at 4.3 uM in presence of bone-marrow derived stromal cell-conditioned medium; type: functional, cell-based
# CCRF-CEM [7] = assay: Potentiation of palbociclib-induced antileukemic activity against human CCRF-CEM cells at 4.3 uM in presence of bone-marrow derived stromal cell-conditioned medium; type: functional, cell-based
# U-937 [8] = assay: Potentiation of alisertib-induced antileukemic activity against human U-937 cells at 4.3 uM in presence of bone-marrow derived stromal cell-conditioned medium; type: functional, cell-based
# U-937 [9] = assay: Potentiation of idasanutlin-induced antileukemic activity against human U-937 cells at 4.3 uM in presence of bone-marrow derived stromal cell-conditioned medium; type: functional, cell-based
# MOLM-14 [10] = assay: Potentiation of AraC-induced antileukemic activity against human MOLM-14 cells at 4.3 uM in presence of bone-marrow derived stromal cell-conditioned medium; type: functional, cell-based
# [11] = molecular target: T1, Bromodomain-containing protein 3 (Homo sapiens, UniProt Q15059); assay: Inhibition of human partial length BRD3-BD2 (G306 to P416 residues) expressed in bacterial system at 1 uM by BROMOscan method relative to control
# Target sequence in this assay (Q15059 2-726 limits assumed): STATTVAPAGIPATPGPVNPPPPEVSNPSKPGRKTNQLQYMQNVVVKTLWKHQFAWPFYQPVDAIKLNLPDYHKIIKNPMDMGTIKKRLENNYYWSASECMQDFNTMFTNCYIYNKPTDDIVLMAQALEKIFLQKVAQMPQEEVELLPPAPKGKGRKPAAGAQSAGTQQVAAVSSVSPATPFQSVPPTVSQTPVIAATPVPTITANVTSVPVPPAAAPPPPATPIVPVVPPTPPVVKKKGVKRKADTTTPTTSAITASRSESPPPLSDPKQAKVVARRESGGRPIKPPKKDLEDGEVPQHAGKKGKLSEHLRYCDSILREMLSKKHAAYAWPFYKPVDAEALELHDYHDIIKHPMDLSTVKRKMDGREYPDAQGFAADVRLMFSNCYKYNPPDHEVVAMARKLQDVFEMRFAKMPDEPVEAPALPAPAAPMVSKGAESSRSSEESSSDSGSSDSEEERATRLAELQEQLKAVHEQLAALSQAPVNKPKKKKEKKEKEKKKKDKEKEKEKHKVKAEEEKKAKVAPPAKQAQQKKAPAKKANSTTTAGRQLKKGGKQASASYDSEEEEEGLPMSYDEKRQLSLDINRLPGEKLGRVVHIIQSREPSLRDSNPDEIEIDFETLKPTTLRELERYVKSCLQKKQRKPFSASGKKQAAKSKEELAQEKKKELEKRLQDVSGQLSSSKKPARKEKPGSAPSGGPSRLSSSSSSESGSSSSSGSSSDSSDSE
# [12] = molecular target: T1, Bromodomain-containing protein 3; assay: Inhibition of BRD3-BD2 (unknown origin) assessed as dissociation constant by ITC method
# Target sequence in this assay (Q15059 whole entry, the tested form may be a part): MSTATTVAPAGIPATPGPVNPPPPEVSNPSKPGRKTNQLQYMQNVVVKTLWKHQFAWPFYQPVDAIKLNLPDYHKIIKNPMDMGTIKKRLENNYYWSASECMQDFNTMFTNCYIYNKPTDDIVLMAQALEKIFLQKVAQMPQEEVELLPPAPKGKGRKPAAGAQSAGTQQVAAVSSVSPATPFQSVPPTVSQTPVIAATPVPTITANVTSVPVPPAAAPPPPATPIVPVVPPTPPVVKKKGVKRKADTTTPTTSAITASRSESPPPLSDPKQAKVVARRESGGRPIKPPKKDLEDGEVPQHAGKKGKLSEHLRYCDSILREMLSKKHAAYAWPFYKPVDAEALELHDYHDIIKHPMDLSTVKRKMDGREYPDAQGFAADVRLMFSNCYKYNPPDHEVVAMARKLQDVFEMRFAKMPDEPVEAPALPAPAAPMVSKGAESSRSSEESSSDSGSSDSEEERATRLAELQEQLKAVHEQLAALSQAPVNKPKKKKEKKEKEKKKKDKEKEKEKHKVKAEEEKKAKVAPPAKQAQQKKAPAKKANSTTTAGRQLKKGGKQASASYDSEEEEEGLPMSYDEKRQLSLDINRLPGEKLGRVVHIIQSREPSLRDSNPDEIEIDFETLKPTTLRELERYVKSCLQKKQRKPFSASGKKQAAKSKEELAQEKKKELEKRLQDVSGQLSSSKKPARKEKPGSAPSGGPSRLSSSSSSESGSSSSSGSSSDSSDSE
# U-937 [13] = assay: Potentiation of birinapant-induced antileukemic activity against human U-937 cells at 4.3 uM in presence of bone-marrow derived stromal cell-conditioned medium; type: functional, cell-based
# CCRF-CEM [14] = assay: Potentiation of -nutlin 3-induced antileukemic activity against human CCRF-CEM cells at 4.3 uM in presence of bone-marrow derived stromal cell-conditioned medium; type: functional, cell-based
# U-937 [15] = assay: Potentiation of AraC-induced antileukemic activity against human U-937 cells at 4.3 uM in presence of bone-marrow derived stromal cell-conditioned medium; type: functional, cell-based
# U-937 [16] = assay: Potentiation of afatinib-induced antileukemic activity against human U-937 cells at 4.3 uM in presence of bone-marrow derived stromal cell-conditioned medium; type: functional, cell-based
# MOLM-14 [17] = assay: Potentiation of afatinib-induced antileukemic activity against human MOLM-14 cells at 4.3 uM in presence of bone-marrow derived stromal cell-conditioned medium; type: functional, cell-based
# U-937 [18] = assay: Potentiation of dexamethasone-induced antileukemic activity against human U-937 cells at 4.3 uM in presence of bone-marrow derived stromal cell-conditioned medium; type: functional, cell-based
# U-937 [19] = assay: Potentiation of navitoclax-induced antileukemic activity against human U-937 cells at 4.3 uM in presence of bone-marrow derived stromal cell-conditioned medium; type: functional, cell-based
# MOLM-14 [20] = assay: Downregulation of Myc expression in human MOLM-14 cells incubated for 2 hrs by RT-PCR analysis; type: functional, cell-based; conditions: dose 5.0 µM
# U-937 [21] = assay: Potentiation of olaparid-induced antileukemic activity against human U-937 cells at 4.3 uM in presence of bone-marrow derived stromal cell-conditioned medium; type: functional, cell-based
# MOLM-14 [22] = assay: Potentiation of idelalisib-induced antileukemic activity against human MOLM-14 cells at 4.3 uM in presence of bone-marrow derived stromal cell-conditioned medium; type: functional, cell-based
# CCRF-CEM [23] = assay: Potentiation of carfilzomib-induced antileukemic activity against human CCRF-CEM cells at 4.3 uM in presence of bone-marrow derived stromal cell-conditioned medium; type: functional, cell-based
# MOLM-14 [24] = assay: Potentiation of -mastinib -induced antileukemic activity against human MOLM-14 cells at 4.3 uM in presence of bone-marrow derived stromal cell-conditioned medium; type: functional, cell-based
# CCRF-CEM [25] = assay: Potentiation of vorinostat-induced antileukemic activity against human CCRF-CEM cells at 4.3 uM in presence of bone-marrow derived stromal cell-conditioned medium; type: functional, cell-based
# MOLM-14 [26] = assay: Potentiation of arsenic-induced antileukemic activity against human MOLM-14 cells at 4.3 uM in presence of bone-marrow derived stromal cell-conditioned medium; type: functional, cell-based
# CCRF-CEM [27] = assay: Potentiation of birinapant-induced antileukemic activity against human CCRF-CEM cells at 4.3 uM in presence of bone-marrow derived stromal cell-conditioned medium; type: functional, cell-based
# U-937 [28] = assay: Potentiation of vermurafenib-induced antileukemic activity against human U-937 cells at 4.3 uM in presence of bone-marrow derived stromal cell-conditioned medium; type: functional, cell-based
# U-937 [29] = assay: Potentiation of metformin -induced antileukemic activity against human U-937 cells at 4.3 uM in presence of bone-marrow derived stromal cell-conditioned medium; type: functional, cell-based
# MOLM-14 [30] = assay: Potentiation of ruxolitinib-induced antileukemic activity against human MOLM-14 cells at 4.3 uM in presence of bone-marrow derived stromal cell-conditioned medium; type: functional, cell-based
# CCRF-CEM [31] = assay: Potentiation of AraC-induced antileukemic activity against human CCRF-CEM cells at 4.3 uM in presence of bone-marrow derived stromal cell-conditioned medium; type: functional, cell-based
# MOLM-14 [32] = assay: Potentiation of vermurafenib-induced antileukemic activity against human MOLM-14 cells at 4.3 uM in presence of bone-marrow derived stromal cell-conditioned medium; type: functional, cell-based
# [33] = test system: Acute myeloid leukemic cell; assay: Potentiation of vorinostat-induced antileukemic activity against patient derived mouse xenografted acute myeloid leukemic cells assessed as cell viability at 0.16 to 10 uM in absence of bone-marrow derived stromal cell-conditioned medium measured after 72 to 144 hrs by cell-titre glo luminescent assay; type: functional, cell-based; conditions: Homo sapiens, dose 0.16-10 µM, time lower […], time upper 144.0 hrs
# MOLM-14 [34] = assay: Potentiation of AGI-5198-induced antileukemic activity against human MOLM-14 cells at 4.3 uM in presence of bone-marrow derived stromal cell-conditioned medium; type: functional, cell-based
# MOLM-14 [35] = assay: Potentiation of 17AAG-induced antileukemic activity against human MOLM-14 cells at 4.3 uM in presence of bone-marrow derived stromal cell-conditioned medium; type: functional, cell-based
# U-937 [36] = assay: Potentiation of sunitinib-induced antileukemic activity against human U-937 cells at 4.3 uM in presence of bone-marrow derived stromal cell-conditioned medium; type: functional, cell-based
# MOLM-14 [37] = assay: Potentiation of bosutinib-induced antileukemic activity against human MOLM-14 cells at 4.3 uM in presence of bone-marrow derived stromal cell-conditioned medium; type: functional, cell-based
# K562 = assay: Inhibition of IFNgamma induced MHC-1 expression in human K562 cells treated for 48 hrs by flow cytometric analysis; type: functional, cell-based; conditions: dose 0.2-20 µM
# CCRF-CEM [38] = assay: Potentiation of vincristine-induced antileukemic activity against human CCRF-CEM cells at 4.3 uM in presence of bone-marrow derived stromal cell-conditioned medium; type: functional, cell-based
# U-937 [39] = assay: Potentiation of dasatinib-induced antileukemic activity against human U-937 cells at 4.3 uM in presence of bone-marrow derived stromal cell-conditioned medium; type: functional, cell-based
# U-937 [40] = assay: Potentiation of trametinib-induced antileukemic activity against human U-937 cells at 4.3 uM in presence of bone-marrow derived stromal cell-conditioned medium; type: functional, cell-based
smiles,measurement,setting,value
CC(=O)N1CCc2c(sc3nc(SCC(=O)Nc4cccnc4C)n(Cc4ccco4)c(=O)c23)C1,Activity,MOLM-14 [1],inactive
same,Activity,MOLM-14 [2],inactive
same,Activity,MOLM-14 [3],inactive
same,Activity,U-937 [4],inactive
same,Activity,CCRF-CEM [5],inactive
same,Activity,U-937 [6],inactive
same,Activity,CCRF-CEM [7],inactive
same,Activity,U-937 [8],inactive
same,Activity,U-937 [9],inactive
same,Activity,MOLM-14 [10],inactive
same,inhibition,[11],36%
same,Kd,[12],150 nM
same,Activity,U-937 [13],inactive
same,Activity,CCRF-CEM [14],inactive
same,Activity,U-937 [15],inactive
same,Activity,U-937 [16],inactive
same,Activity,MOLM-14 [17],inactive
same,Activity,U-937 [18],inactive
same,Activity,U-937 [19],inactive
same,Activity,MOLM-14 [20],Dose-Dependent Effect
same,Activity,U-937 [21],inactive
same,Activity,MOLM-14 [22],inactive
same,Activity,CCRF-CEM [23],inactive
same,Activity,MOLM-14 [24],inactive
same,Activity,CCRF-CEM [25],inactive
same,Activity,MOLM-14 [26],inactive
same,Activity,CCRF-CEM [27],inactive
same,Activity,U-937 [28],inactive
same,Activity,U-937 [29],inactive
same,Activity,MOLM-14 [30],inactive
same,Activity,CCRF-CEM [31],inactive
same,Activity,MOLM-14 [32],inactive
same,Activity,[33],inactive
same,Activity,MOLM-14 [34],inactive
same,Activity,MOLM-14 [35],inactive
same,Activity,U-937 [36],inactive
same,Activity,MOLM-14 [37],inactive
same,Activity,K562,Dose-Dependent Effect
same,Activity,CCRF-CEM [38],inactive
same,Activity,U-937 [39],inactive
same,Activity,U-937 [40],inactive
